Source: paper PMC3098219, “Protective Efficacy of Serially Up-Ranked Subdominant CD8^+ T Cell Epitopes against Virus Challenges” (PLoS Pathogens, 2011)

System: splenocytes of DNA-immunized mice
Test: IFN-γ ELISPOT and ICS with modified HIVA immunogens
Type: cell-based, BALB/c mice
Settings: dHmP-immunized group; ELISPOT, ICS and in vivo killing
Text: To further investigate this phenomenon, we serially inactivated CD8^+ T cell epitopes in the order of their immunodominance. To maintain the HIVA protein integrity, epitopes P and G1 were mutated rather than deleted by substituting the anchor amino acid residues required for a strong binding to the H-2K^d molecule (Figure 2A). The resulting double and triple mutants of the HIVA immunogen were called dHmP and dHmPG1, respectively. […] Groups of BALB/c mice were immunized 2x using the modified HIVA immunogens vectored by plasmid DNA and the immune responses were measured in IFN-γ ELISPOT, ICS and in vivo killing assays. […] Second, consistently in all three assays, immune responses directed against subdominant epitopes were serially recovered, however, not to the same extent. […] Because the response to the G2 epitope remained undetectable even in the dHmPG1-immunized mice, overlapping 15/11 peptides across the whole HIVA immunogen were used again to search for another yet unidentified epitope of a higher rank. […] (Figure 2D). […] Thus, step-wise deletion of immunodominant CD8^+ T cell epitopes restores responses to the subdominant epitopes in the hierarchy.
Figure 2 Serial up-ranking of epitopes. A) Groups of 4 BALB/c mice were immunized 2x i.m. with 100 µg of DNA at a 2-wk interval. Two wk later, splenocytes were assessed in an ELISPOT assay for production of IFN-γ upon re-stimulation with peptides indicated above. Shown are schematic diagrams of HIVA and the three modified immunogens with representative examples of the ELISPOT well images. B) Mice were immunized as in A and 4 wk later, splenocytes were assessed in an ICS assay to measure CD8^+ T cells secreting IFN-γ upon re-stimulation with peptide indicated in the top left corner. Group means±SD are shown. C) Identical groups of mice were assessed for cytolytic activity in an in vivo lysis of syngeneic peptide-pulsed cells transferred into naïve or vaccinated animals. Representative examples of dot plots are shown (top) and the peptide-specific lyses are expressed as a group mean±SD (bottom). D) Groups of 3 BALB/c mice were immunized 3x with 100 µg of DNA indicated above the dot plot in 2-wk intervals and the designated NPP peptide-specific responses were assessed by IFN-γ ICS 2 wk later. The FACS plots are representative examples with IFN-γ producing cells as a percentage of CD8^+ splenocytes shown in the top right panels. All experiments were repeated at least once. TEXT PRINTED IN THE PICTURE: (D) HIVA: 0.05 | (D) HIVAdH: 0.09 | (D) dHmP: 0.08 | (D) dHmPG1: 0.57 DOUBTS OF THE COPYIST ABOUT THIS PICTURE: Panel D: the numbers in the top right quadrants of the CD8 / IFN-γ dot plots are printed without a measure or unit, so they are copied as bare numbers.
The ELISPOT assay was performed using the Mouse IFN-γ ELISpot kit (Mabtech) according to the manufacturer's instructions. Spots were visualised using sequential applications of a biotin-conjugated secondary anti-IFN-γ mAb (R4-6A2, Rat IgG1), an alkaline phosphatase and a chromogenic substrate (Bio-Rad) and counted using the AID ELISpot Reader System (Autoimmun Diagnostika).

AMQMLKDTI [G1, H-2K^d-restricted, Gag residues 197–205]
restoration of G1-specific T cell responses: significant restoration of G1-specific T cell responses, now comparable to those against H and restored P
